Measurements published in ChEMBL document CHEMBL3045550, “Design, synthesis and biological activities of new strobilurin derivatives containing substituted pyrazoles” (2010).

Legend:
Format in all cases: functional
[1] = system: Tetranychus cinnabarinus; assay: Acaricidal activity against Tetranychus cinnabarinus (carmine spider mite) in kidney bean plants assessed as mortality at 600 mg/l after 48 hr relative to control
[2] = system: Blumeria graminis f. sp. tritici; assay: Antifungal activity against Blumeria graminis f. sp. tritici infected seven-day-old wheat seedlings assessed as disease control at 1.56 mg/l after 7 days relative to control
[3] = system: Pseudoperonospora cubensis; assay: Antifungal activity against Pseudoperonospora cubensis infected cucumber leaves assessed as disease control at 400 mg/l after 5 days relative to control
[4] = system: Pseudoperonospora cubensis; assay: Antifungal activity against Pseudoperonospora cubensis infected cucumber leaves assessed as disease control at 25 mg/l after 5 days relative to control
[5] = system: Botrytis cinerea; assay: Antifungal activity against Botryotinia fuckeliana infected cucumber leaves assessed as disease control at 400 mg/l after 4 days relative to control
[6] = system: Pyricularia oryzae; assay: Antifungal activity against Magnaporthe oryzae infected 12 day old rice plant assessed as disease control at 400 mg/l after 6 days relative to control
[7] = system: Pseudoperonospora cubensis; assay: Antifungal activity against Pseudoperonospora cubensis infected cucumber leaves assessed as disease control at 3.12 mg/l after 5 days relative to control
[8] = system: Pseudoperonospora cubensis; assay: Antifungal activity against Pseudoperonospora cubensis infected cucumber leaves assessed as disease control at 6.25 mg/l after 5 days relative to control
[9] = system: Blumeria graminis f. sp. tritici; assay: Antifungal activity against Blumeria graminis f. sp. tritici infected seven-day-old wheat seedlings assessed as disease control at 400 mg/l after 7 days relative to control
[10] = system: Blumeria graminis f. sp. tritici; assay: Antifungal activity against Blumeria graminis f. sp. tritici infected seven-day-old wheat seedlings assessed as disease control at 12.5 mg/l after 7 days relative to control
[11] = system: Tetranychus cinnabarinus; assay: Acaricidal activity against Tetranychus cinnabarinus (carmine spider mite) in kidney bean plants assessed as mortality at 38 mg/l after 48 hr relative to control
[12] = system: Tetranychus cinnabarinus; assay: Acaricidal activity against Tetranychus cinnabarinus (carmine spider mite) in kidney bean plants assessed as mortality at 150 mg/l after 48 hr relative to control

Row | Structure (SMILES) | Activity [1] | Activity [2] | Activity [3] | Activity [4] | Activity [5] | Activity [6] | Activity [7] | Activity [8] | Activity [9] | Activity [10] | Activity [11] | Activity [12]
1 | CO/C=C(/C(=O)OC)c1ccccc1COc1cc(-c2ccccc2OC)nn1C | 0% | 35% | 100% | 50% | 50% | 100% | 0% | 0% | 100% | 100% | – | –
2 | CO/C=C(/C(=O)OC)c1ccccc1COc1cc(-c2ccccc2Cl)nn1C | 100% | 40% | 100% | 100% | 0% | 0% | 0% | 0% | 100% | 100% | 0% | 0%
3 | CO/C=C(/C(=O)OC)c1ccccc1COc1cc(-c2ccc(OCC(F)(F)F)cc2)nn1C | 0% | – | 100% | 90% | 0% | 0% | 0% | 0% | 60% | – | – | –
4 | CO/C=C(/C(=O)OC)c1ccccc1COc1cc(-c2ccc([N+](=O)[O-])cc2)nn1C | 0% | 95% | 100% | 100% | 0% | 99% | 50% | 70% | 100% | 100% | – | –
5 | CO/C=C(/C(=O)OC)c1ccccc1COc1cc(-c2ccc(-c3ccc(Cl)cc3)cc2)nn1C | 0% | 0% | 100% | 100% | 0% | 0% | 0% | 0% | 100% | 95% | – | –
6 | CO/C=C(/C(=O)OC)c1ccccc1COc1cc(-c2ccc(Oc3ccccc3)cc2)nn1C | 0% | – | 100% | 100% | 0% | 0% | 0% | 0% | 0% | – | – | –
7 | CO/C=C(/C(=O)OC)c1ccccc1COc1c(C)c(-c2ccccc2)nn1C | 100% | 55% | 100% | 100% | 0% | 0% | 40% | 60% | 100% | 100% | 0% | 0%
8 | CO/C=C(/C(=O)OC)c1ccccc1Oc1cc(Oc2ccccc2C#N)ncn1 [AZOXYSTROBIN] | – | 60% | 100% | 100% | 100% | 100% | 100% | 95% | 100% | 100% | – | –
9 | CO/N=C(/C(=O)OC)c1ccccc1COc1ccccc1C [KRESOXIM-METHYL] | – | 100% | – | 35% | 100% | 100% | 0% | 0% | 100% | 100% | – | –
10 | CO/C=C(/C(=O)OC)c1ccccc1COc1c(C)c(-c2ccc(OCC(F)(F)F)cc2)nn1C [METHYL 2-(2-((1,4-DIMETHYL-3-(4-(2,2,2-TRIFLUOROETHOXY)PHENYL)-1H-PYRAZOL-5-YLOXY)METHYL)PHENYL)-3-METHOXYACRYLATE] | 60% | 65% | 100% | 40% | 100% | 100% | 0% | 0% | 100% | 100% | – | –
11 | CO/C=C(/C(=O)OC)c1ccccc1COc1c(C)c(-c2ccc(C)cc2)nn1C [METHYL 2-(2-((1,4-DIMETHYL-3-P-TOLYL-1H-PYRAZOL-5-YLOXY)METHYL)PHENYL)-3-METHOXYACRYLATE] | 100% | 45% | 100% | 100% | 0% | 0% | 40% | 75% | 100% | 100% | 0% | 0%
12 | CO/C=C(/C(=O)OC)c1ccccc1COc1cc(-c2ccc(Cl)cc2Cl)nn1C [METHYL 2-(2-((3-(2,4-DICHLOROPHENYL)-1-METHYL-1H-PYRAZOL-5-YLOXY)METHYL)PHENYL)-3-METHOXYACRYLATE] | 0% | 0% | 100% | 100% | 0% | 0% | 20% | 45% | 100% | 100% | – | –
13 | CO/C=C(/C(=O)OC)c1ccccc1COc1cc(-c2ccc(C)cc2C)nn1C [METHYL 2-(2-((3-(2,4-DIMETHYLPHENYL)-1-METHYL-1H-PYRAZOL-5-YLOXY)METHYL)PHENYL)-3-METHOXYACRYLATE] | 100% | 80% | 100% | 100% | 50% | 100% | 20% | 70% | 100% | 100% | 0% | 0%
14 | CO/C=C(/C(=O)OC)c1ccccc1COc1c(C)c(-c2ccc(Cl)cc2)nn1C [METHYL 2-(2-((3-(4-CHLOROPHENYL)-1,4-DIMETHYL-1H-PYRAZOL-5-YLOXY)METHYL)PHENYL)-3-METHOXYACRYLATE] | 60% | 100% | 95% | 0% | 0% | 0% | 0% | 0% | 100% | 100% | – | –
15 | CO/C=C(/C(=O)OC)c1ccccc1COc1cc(-c2ccc(F)cc2)nn1C [METHYL 2-(2-((3-(4-FLUOROPHENYL)-1-METHYL-1H-PYRAZOL-5-YLOXY)METHYL)PHENYL)-3-METHOXYACRYLATE] | 0% | – | 100% | 100% | 100% | 50% | 75% | 100% | 30% | – | – | –
16 | CO/C=C(/C(=O)OC)c1ccccc1COc1cc(-c2ccc(C(C)(C)C)cc2)nn1C [METHYL 2-(2-((3-(4-TERT-BUTYLPHENYL)-1-METHYL-1H-PYRAZOL-5-YLOXY)METHYL)PHENYL)-3-METHOXYACRYLATE] | 0% | – | 100% | 15% | 50% | 100% | – | – | 70% | – | – | –
17 | CO/C=C(/C(=O)OC)c1ccccc1COc1cc(-c2ccc(SC)cc2)nn1C [METHYL 3-METHOXY-2-(2-((1-METHYL-3-(4-(METHYLTHIO)PHENYL)-1H-PYRAZOL-5-YLOXY)METHYL)PHENYL)ACRYLATE] | 0% | – | 100% | 100% | 0% | 90% | 0% | 35% | 0% | – | – | –
18 | CO/C=C(/C(=O)OC)c1ccccc1COc1cc(-c2ccc(C)cc2)nn1C [METHYL 3-METHOXY-2-(2-((1-METHYL-3-P-TOLYL-1H-PYRAZOL-5-YLOXY)METHYL)PHENYL)ACRYLATE] | 0% | 0% | 100% | 0% | 0% | 0% | 0% | 0% | 100% | 35% | – | –
19 | CO/C=C(/C(=O)OC)c1ccccc1COc1cc(-c2ccccc2)nn1C [METHYL 3-METHOXY-2-(2-((1-METHYL-3-PHENYL-1H-PYRAZOL-5-YLOXY)METHYL)PHENYL)ACRYLATE] | 0% | 0% | 100% | 0% | 0% | 0% | 0% | 0% | 100% | 0% | – | –
20 | CO/C=C(/C(=O)OC)c1ccccc1COc1cc(-c2ccc(OC)cc2)nn1C [METHYL 3-METHOXY-2-(2-((3-(4-METHOXYPHENYL)-1-METHYL-1H-PYRAZOL-5-YLOXY)METHYL)PHENYL)ACRYLATE] | 0% | 0% | 95% | 90% | 50% | 100% | 0% | 15% | 100% | 65% | – | –
